# Test results as given in US20080207683A1, “BIARYL-S[…]-PYRAZOLO-PYRIDINE MODULATORS OF CATHEPSIN S” (priority 2007, published 2008).
# Molecular target: T1, Human CatS (Homo sapiens, UniProt P25774)
# T1 construct: made in house; host or cells: Sf9 insect cells (baculovirus vector pFB+HT)
# Assay: CatS inhibition of hydrolysis of fluorescent substrate Z-Val-Val-Arg-AFC
# Assay type: biochemical
# Details: apparent Ki, Morrison equation fit of initial rates; 10 μM Z-Val-Val-Arg-AFC, pH 5.0, 1.5 nM CatS; read-out: CatS Ki^app
# Protocol: Human CatS was cloned into pFB+HT (from Stratagene clone), expressed in Sf9 cells, and purified over a Ni column. Fractions were concentrated and activated at pH 4.0 for 6 hr and then purified over a thiopropylsepharose column and eluted with 1×TBS, 500 mM NaCl, 1 mM EDTA, 25 mM DTT pH 7.6. Glycerol (50%) was added in a 1:1 (vol/vol) ratio (25% glycerol final) and protein was stored at −80° C. in 5 μL aliquots. […] The increase in fluorescence over time was monitored using λexcitation=400 nm and λemission=505 nm.
# In equation 1, v is the initial rate measured in the presence of [I]0, the inhibitor concentration, using an enzyme concentration [E]0. v0 is the initial rate measured in the absence of inhibitor.
# T1 sequence (P25774 115-331): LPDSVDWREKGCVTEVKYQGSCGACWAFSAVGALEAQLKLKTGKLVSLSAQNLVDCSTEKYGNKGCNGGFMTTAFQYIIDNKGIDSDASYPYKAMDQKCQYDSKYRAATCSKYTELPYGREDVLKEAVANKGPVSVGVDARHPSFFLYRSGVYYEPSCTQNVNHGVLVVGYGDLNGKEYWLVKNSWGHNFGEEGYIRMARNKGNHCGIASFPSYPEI
row,Compound,Ki
1,"CC(NC(=O)c1cccc(-c2cc(-c3nn(CCCN4CCCC4)c4c3CN(S(C)(=O)=O)CC4)ccc2Cl)c1)c1nc2ccccc2[nH]1 (stereo not shown) [Example 18, 2′-Chloro-5′-[5-methanesulfonyl-1-(3-pyrrolidin-1-yl-propyl)-4,5,6,7-tetrahydro-1H-pyrazolo[4,3-c]pyridin-3-yl]-biphenyl-3-carboxylic acid [1-(1H-benzoimidazol-2-yl)-ethyl]-amide]",22.6 nM
2,"CC(C)(C)c1csc(CNC(=O)c2cccc(-c3cc(-c4nn(CCCN5CCCC5)c5c4CN(S(C)(=O)=O)CC5)ccc3Cl)c2)n1 [Example 22, 2′-Chloro-5′-[5-methanesulfonyl-1-(3-pyrrolidin-1-yl-propyl)-4,5,6,7-tetrahydro-1H-pyrazolo[4,3-c]pyridin-3-yl]-biphenyl-3-carboxylic acid (4-tert-butyl-thiazol-2-ylmethyl)-amide]",75.4 nM
3,"CS(=O)(=O)N1CCc2c(c(-c3ccc(Cl)c(-c4cccc(C(=O)NCc5nccs5)c4)c3)nn2CCCN2CCCC2)C1 [Example 19, 2′-Chloro-5′-[5-methanesulfonyl-1-(3-pyrrolidin-1-yl-propyl)-4,5,6,7-tetrahydro-1H-pyrazolo[4,3-c]pyridin-3-yl]-biphenyl-3-carboxylic acid (thiazol-2-ylmethyl)-amide]",269 nM
4,"C[C@@H](NC(=O)c1cccc(-c2cc(-c3nn(CCCN4CCCC4)c4c3CN(S(C)(=O)=O)CC4)ccc2Cl)c1)c1nc(-c2ccccc2)cs1 [Example 24, (R)-2′-Chloro-5′-[5-methanesulfonyl-1-(3-pyrrolidin-1-yl-propyl)-4,5,6,7-tetrahydro-1H-pyrazolo[4,3-c]pyridin-3-yl]-biphenyl-3-carboxylic acid [1-(4-phenyl-thiazol-2-yl)-ethyl]-amide]",175 nM
